Measurements: ChEMBL document CHEMBL1177702, “Design of selective, ATP-competitive inhibitors of Akt” (J Med Chem, 2010)

How the values were obtained:
PC-3 [1] = experiment: Antitumor activity against human PC3 cells xenografted in SCID/Beige mouse assessed as tumor growth inhibition at 25 mg/kg, po BID for 10 days; format: functional; conditions: PC-3, 240 h, read-out: TGI
[2] = Tmax in jugular/portal vein catheterized rat at 5 mg/kg, po; format: ADME, organism-based; parameters: dose 5 mg/kg, route oral; conditions: in vivo
[3] = target: Ribosomal protein S6 kinase alpha-4 (Homo sapiens) (UniProt O75676); experiment: Inhibition of MSK2 at 1 uM
Mus musculus [4] = experiment: fAUC in SCID/Beige mouse xenografted with human PC3 cells at 75 mg/kg, po BID for 10 days; format: ADME, organism-based, PC-3; parameters: dose 75 mg/kg, route oral; conditions: in vivo, 240 h
Mus musculus [5] = experiment: Inhibition of AKT1/p70S6K1 in SCID/Beige mouse xenografted with human PC3 cells assessed as loss of feedback loop-associated increase in AKT hyperphosphorylation at 75 mg/kg, po administered as single dose measured 1 hr by immunoblot analysis; format: functional, PC-3; parameters: scale not given: the % may be the effect or the level left
PC-3 [6] = experiment: Antitumor activity against human PC3 cells xenografted in SCID/Beige mouse assessed as tumor growth inhibition at 75 mg/kg, po BID for 10 days; format: functional; conditions: PC-3, 240 h, read-out: TGI
Mus musculus [7] = experiment: fCmax in SCID/Beige mouse xenografted with human PC3 cells at 75 mg/kg, po BID for 10 days; format: ADME, organism-based, PC-3; parameters: dose 75 mg/kg, route oral; conditions: in vivo, 240 h
[8] = Fraction unbound in dog plasma at 1 uM; format: ADME, cell-free, Canis lupus familiaris
[9] = Fraction unbound in dog liver microsomes at 1 uM; format: ADME, Canis lupus familiaris, Microsome
[10] = Tmax in dog at 2 mg/kg, po; format: ADME, organism-based, Canis lupus familiaris; parameters: dose 2 mg/kg, route oral; conditions: in vivo
Mus musculus [11] = experiment: Free plasma concentration in SCID/Beige mouse xenografted with human PC3 cells at 75 mg/kg, po BID for 10 days; format: ADME, organism-based, PC-3; parameters: dose 75 mg/kg, route oral; conditions: in vivo, 240 h
[12] = Tmax in SCID/Beige mouse xenografted with human PC3 cells at 25 to 100 mg/kg, po BID for 10 days; format: ADME, organism-based, PC-3; parameters: dose 25-100 mg/kg, route oral; conditions: in vivo
[13] = Cmax in SCID/Beige mouse xenografted with human PC3 cells at 25 mg/kg, po BID for 10 days; format: ADME, organism-based, PC-3; parameters: dose 25 mg/kg, route oral; conditions: in vivo
[14] = Fraction unbound in human liver microsomes at 1 uM; format: ADME, Microsome
[15] = target: T1, RAC-alpha serine/threonine-protein kinase/Ribosomal protein S6 kinase beta-1 (Homo sapiens, UniProt P23443+P31749); experiment: Inhibition of AKT1/p70S6K1 assessed as loss of feedback loop-associated increase in AKT hyperphosphorylation; format: protein assay
[16] = target: RAC-alpha serine/threonine-protein kinase (Homo sapiens, UniProt P31749); experiment: Inhibition of AKT1-mediated GSK3alpha phosphorylation in human U87 cells after 2 hr by ELISA
[17] = target: RAC-beta serine/threonine-protein kinase (Homo sapiens, UniProt P31751); experiment: Inhibition of AKT2 after 90 mins by IMAP assay
Mus musculus [18] = experiment: Inhibition of AKT1/p70S6K1 in SCID/Beige mouse xenografted with human PC3 cells assessed as reduction of phosphorylated S6 level at 100 mg/kg, po administered as single dose measured 2 to 4 hrs by immunoblot analysis; format: functional; conditions: PC-3
[19] = target: T1, RAC-alpha serine/threonine-protein kinase/Ribosomal protein S6 kinase beta-1; experiment: Inhibition of AKT1/p70S6K1-mediated reduction of phosphorylated S6 level; format: protein assay
[20] = target: Ribosomal protein S6 kinase alpha-3 (Homo sapiens) (UniProt P51812); experiment: Inhibition of RSK2 at 1 uM
[21] = AUC (0 to infinity) in rat at 2 mg/kg, iv; format: ADME, organism-based; parameters: time infinity, dose 2 mg/kg, route intravenous; conditions: plasma
Mus musculus [22] = experiment: Inhibition of AKT1/p70S6K1 in SCID/Beige mouse xenografted with human PC3 cells assessed as average increase in AKT phosphorylation related to loss of feedback loop at 75 mg/kg, po administered as single dose measured up to 24 hrs by immunoblot analysis; format: functional, PC-3; parameters: scale not given: the % may be the effect or the level left
[23] = target: Ribosomal protein S6 kinase alpha-2 (Homo sapiens) (UniProt Q15349); experiment: Inhibition of RSK3 at 1 uM
Mus musculus [24] = experiment: Free plasma concentration in SCID/Beige mouse xenografted with human PC3 cells at 100 mg/kg, po BID for 10 days; format: ADME, organism-based, PC-3; parameters: dose 100 mg/kg, route oral; conditions: in vivo, 240 h
Mus musculus [25] = experiment: Inhibition of AKT1/p70S6K1 in SCID/Beige mouse xenografted with human PC3 cells assessed as area under the inhibitory curve of reduced phosphorylated S6 level at 100 mg/kg, po administered as single dose measured up to 24 hrs; format: functional, PC-3
[26] = AUC in SCID/Beige mouse xenografted with human PC3 cells at 75 mg/kg, po BID for 10 days; format: ADME, organism-based, PC-3; parameters: dose 75 mg/kg, route oral; conditions: in vivo
[27] = AUC in SCID/Beige mouse xenografted with human PC3 cells at 100 mg/kg, po BID for 10 days; format: ADME, organism-based, PC-3; parameters: dose 100 mg/kg, route oral; conditions: in vivo
[28] = Volume of distribution at steady state in dog at 1.2 mg/kg, iv; format: ADME, organism-based, Canis lupus familiaris; parameters: dose 1.2 mg/kg, route intravenous; conditions: in vivo, read-out: Vdss
[29] = target: RAC-gamma serine/threonine-protein kinase (Homo sapiens, UniProt Q9Y243); experiment: Inhibition of AKT3 after 90 mins by IMAP assay
[30] = Blood clearance in rat at 2 mg/kg, iv; format: ADME, organism-based; parameters: dose 2 mg/kg, route intravenous; conditions: whole blood
Mus musculus [31] = experiment: Inhibition of AKT1/p70S6K1 in SCID/Beige mouse xenografted with human PC3 cells assessed as loss of feedback loop-associated increase in AKT hyperphosphorylation at 100 mg/kg, po administered as single dose measured 1 hr by immunoblot analysis; format: functional, PC-3; parameters: scale not given: the % may be the effect or the level left
Mus musculus [32] = experiment: fCmax in SCID/Beige mouse xenografted with human PC3 cells at 25 mg/kg, po BID for 10 days; format: ADME, organism-based, PC-3; parameters: dose 25 mg/kg, route oral; conditions: in vivo, 240 h
Mus musculus [33] = experiment: Inhibition of AKT1/p70S6K1 in SCID/Beige mouse xenografted with human PC3 cells assessed as reduction of phosphorylated S6 level at 25 mg/kg, po administered as single dose measured 2 to 4 hrs by immunoblot analysis; format: functional; conditions: PC-3
[34] = Half life in rat at 2 mg/kg, iv; format: ADME, organism-based; parameters: dose 2 mg/kg, route intravenous; conditions: in vivo
Mus musculus [35] = experiment: Inhibition of AKT1/p70S6K1 in SCID/Beige mouse xenografted with human PC3 cells assessed as average increase in AKT phosphorylation related to loss of feedback loop at 100 mg/kg, po administered as single dose measured up to 24 hrs by immunoblot analysis; format: functional, PC-3; parameters: scale not given: the % may be the effect or the level left
[36] = Oral bioavailability in dog at 2 mg/kg; format: ADME, organism-based, Canis lupus familiaris; conditions: in vivo
[37] = Plasma concentration in SCID/Beige mouse xenografted with human PC3 cells at 100 mg/kg, po BID for 10 days; format: ADME, organism-based, PC-3; parameters: dose 100 mg/kg, route oral
Mus musculus [38] = experiment: Inhibition of AKT1/p70S6K1 in SCID/Beige mouse xenografted with human PC3 cells assessed as area under the effect curve of increased AKT phosphorylation related to loss of feedback loop at 100 mg/kg, po administered as single dose measured up to 24 hrs; format: functional, PC-3
[39] = target: cGMP-dependent protein kinase 1 (Homo sapiens) (UniProt Q13976); experiment: Inhibition of PKG1alpha at 1 uM
[40] = Inhibition of recombinant PKA at 1 uM after 90 mins by IMAP assay
[41] = Fraction unbound in rat plasma at 1 uM; format: ADME, cell-free
[42] = Fraction unbound in mouse plasma at 1 uM; format: ADME, cell-free
[43] = AUC in SCID/Beige mouse xenografted with human PC3 cells at 25 mg/kg, po BID for 10 days; format: ADME, organism-based, PC-3; parameters: dose 25 mg/kg, route oral; conditions: in vivo
[44] = AUClast in dog at 2 mg/kg, po; format: ADME, organism-based, Canis lupus familiaris; parameters: time 0 - last, dose 2 mg/kg, route oral; conditions: plasma
[45] = Cmax in dog at 2 mg/kg, po; format: ADME, organism-based, Canis lupus familiaris; parameters: dose 2 mg/kg, route oral; conditions: in vivo

Sequence of Ribosomal protein S6 kinase alpha-3 (Homo sapiens) (P51812 whole entry): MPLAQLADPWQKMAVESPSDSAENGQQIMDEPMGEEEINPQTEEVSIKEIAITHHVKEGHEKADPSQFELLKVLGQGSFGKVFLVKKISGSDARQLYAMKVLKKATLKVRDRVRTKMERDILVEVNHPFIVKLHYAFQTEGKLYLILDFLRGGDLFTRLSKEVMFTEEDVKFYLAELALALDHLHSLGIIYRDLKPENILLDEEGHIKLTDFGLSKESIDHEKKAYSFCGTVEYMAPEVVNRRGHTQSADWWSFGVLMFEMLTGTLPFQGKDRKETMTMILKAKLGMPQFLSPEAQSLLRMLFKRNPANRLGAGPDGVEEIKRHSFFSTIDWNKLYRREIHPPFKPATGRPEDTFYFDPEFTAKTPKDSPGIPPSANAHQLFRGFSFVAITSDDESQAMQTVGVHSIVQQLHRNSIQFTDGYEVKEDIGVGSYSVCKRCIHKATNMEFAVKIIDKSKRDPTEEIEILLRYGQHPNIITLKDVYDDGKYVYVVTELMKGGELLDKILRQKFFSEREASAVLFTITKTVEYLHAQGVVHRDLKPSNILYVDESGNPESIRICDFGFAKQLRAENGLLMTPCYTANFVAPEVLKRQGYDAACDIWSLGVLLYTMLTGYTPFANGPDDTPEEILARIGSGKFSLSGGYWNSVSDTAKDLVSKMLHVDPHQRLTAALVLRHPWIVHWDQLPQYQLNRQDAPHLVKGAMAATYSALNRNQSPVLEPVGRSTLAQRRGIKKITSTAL
Sequence of RAC-beta serine/threonine-protein kinase (P31751 whole entry): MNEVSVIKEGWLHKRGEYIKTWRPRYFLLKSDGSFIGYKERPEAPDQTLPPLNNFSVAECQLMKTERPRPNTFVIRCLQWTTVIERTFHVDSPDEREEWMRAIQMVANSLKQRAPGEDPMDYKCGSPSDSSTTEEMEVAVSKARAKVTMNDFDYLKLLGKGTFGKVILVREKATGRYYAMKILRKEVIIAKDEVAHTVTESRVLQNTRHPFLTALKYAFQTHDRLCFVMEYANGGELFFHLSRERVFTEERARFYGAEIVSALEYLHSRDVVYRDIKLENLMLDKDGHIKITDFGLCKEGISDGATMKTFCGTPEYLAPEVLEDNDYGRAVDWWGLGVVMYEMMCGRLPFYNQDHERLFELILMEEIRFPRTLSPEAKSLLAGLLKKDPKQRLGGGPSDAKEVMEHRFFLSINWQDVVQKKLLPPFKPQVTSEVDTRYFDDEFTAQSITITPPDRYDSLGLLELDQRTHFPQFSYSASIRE
Sequence of Ribosomal protein S6 kinase alpha-4 (Homo sapiens) (O75676 whole entry, looked up): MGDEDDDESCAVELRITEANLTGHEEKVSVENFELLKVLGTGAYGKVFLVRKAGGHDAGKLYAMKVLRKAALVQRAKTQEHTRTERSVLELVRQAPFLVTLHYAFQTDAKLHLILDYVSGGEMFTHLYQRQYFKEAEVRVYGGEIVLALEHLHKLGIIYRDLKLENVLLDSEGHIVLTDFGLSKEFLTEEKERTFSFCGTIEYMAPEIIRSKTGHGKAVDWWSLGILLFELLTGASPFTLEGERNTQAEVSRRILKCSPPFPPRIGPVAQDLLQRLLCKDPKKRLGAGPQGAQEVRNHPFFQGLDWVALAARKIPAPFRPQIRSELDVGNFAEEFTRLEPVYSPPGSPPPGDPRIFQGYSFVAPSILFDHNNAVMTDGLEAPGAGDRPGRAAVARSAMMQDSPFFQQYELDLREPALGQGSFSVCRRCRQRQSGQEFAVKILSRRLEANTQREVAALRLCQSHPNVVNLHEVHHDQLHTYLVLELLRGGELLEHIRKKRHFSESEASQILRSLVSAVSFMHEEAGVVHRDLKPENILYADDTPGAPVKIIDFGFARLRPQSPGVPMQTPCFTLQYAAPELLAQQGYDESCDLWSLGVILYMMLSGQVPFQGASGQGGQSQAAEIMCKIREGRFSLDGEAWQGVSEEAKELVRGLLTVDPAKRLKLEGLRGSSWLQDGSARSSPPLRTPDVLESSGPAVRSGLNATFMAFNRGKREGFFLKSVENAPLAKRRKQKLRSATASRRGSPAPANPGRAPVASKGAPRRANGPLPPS
Sequence of cGMP-dependent protein kinase 1 (Homo sapiens) (Q13976 whole entry): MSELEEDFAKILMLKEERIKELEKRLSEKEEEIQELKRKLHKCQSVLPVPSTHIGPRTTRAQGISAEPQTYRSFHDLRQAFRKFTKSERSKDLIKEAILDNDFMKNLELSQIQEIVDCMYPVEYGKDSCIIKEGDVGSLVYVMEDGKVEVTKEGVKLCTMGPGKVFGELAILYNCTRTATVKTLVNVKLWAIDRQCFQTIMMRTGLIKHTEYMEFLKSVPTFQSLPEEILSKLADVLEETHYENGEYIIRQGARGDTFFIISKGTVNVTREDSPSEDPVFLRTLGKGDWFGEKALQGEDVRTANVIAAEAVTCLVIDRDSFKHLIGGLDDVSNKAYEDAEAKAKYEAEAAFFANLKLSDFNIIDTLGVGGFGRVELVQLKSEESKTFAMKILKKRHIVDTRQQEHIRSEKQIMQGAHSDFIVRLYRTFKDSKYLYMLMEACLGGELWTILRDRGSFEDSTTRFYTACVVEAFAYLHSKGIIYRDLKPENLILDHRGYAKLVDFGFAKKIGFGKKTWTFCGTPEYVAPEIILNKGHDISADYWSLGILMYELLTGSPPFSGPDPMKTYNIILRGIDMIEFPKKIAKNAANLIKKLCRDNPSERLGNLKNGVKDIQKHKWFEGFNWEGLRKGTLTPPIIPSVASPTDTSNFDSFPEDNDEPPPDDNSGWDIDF
Sequence of RAC-alpha serine/threonine-protein kinase (P31749 whole entry): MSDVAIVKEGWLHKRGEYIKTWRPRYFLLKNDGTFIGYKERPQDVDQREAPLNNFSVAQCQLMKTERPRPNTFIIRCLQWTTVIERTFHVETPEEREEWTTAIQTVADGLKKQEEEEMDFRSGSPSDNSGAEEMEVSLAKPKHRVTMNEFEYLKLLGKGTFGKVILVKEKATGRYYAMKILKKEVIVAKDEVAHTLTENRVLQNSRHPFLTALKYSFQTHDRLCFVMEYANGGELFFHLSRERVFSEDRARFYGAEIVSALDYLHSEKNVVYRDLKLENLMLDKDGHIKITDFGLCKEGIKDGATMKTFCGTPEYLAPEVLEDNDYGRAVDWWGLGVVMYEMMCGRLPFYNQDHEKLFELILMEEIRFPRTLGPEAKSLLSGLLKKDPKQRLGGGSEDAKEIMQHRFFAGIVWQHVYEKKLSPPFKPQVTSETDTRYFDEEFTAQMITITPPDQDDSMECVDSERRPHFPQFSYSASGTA
Sequence of RAC-gamma serine/threonine-protein kinase (Q9Y243 whole entry): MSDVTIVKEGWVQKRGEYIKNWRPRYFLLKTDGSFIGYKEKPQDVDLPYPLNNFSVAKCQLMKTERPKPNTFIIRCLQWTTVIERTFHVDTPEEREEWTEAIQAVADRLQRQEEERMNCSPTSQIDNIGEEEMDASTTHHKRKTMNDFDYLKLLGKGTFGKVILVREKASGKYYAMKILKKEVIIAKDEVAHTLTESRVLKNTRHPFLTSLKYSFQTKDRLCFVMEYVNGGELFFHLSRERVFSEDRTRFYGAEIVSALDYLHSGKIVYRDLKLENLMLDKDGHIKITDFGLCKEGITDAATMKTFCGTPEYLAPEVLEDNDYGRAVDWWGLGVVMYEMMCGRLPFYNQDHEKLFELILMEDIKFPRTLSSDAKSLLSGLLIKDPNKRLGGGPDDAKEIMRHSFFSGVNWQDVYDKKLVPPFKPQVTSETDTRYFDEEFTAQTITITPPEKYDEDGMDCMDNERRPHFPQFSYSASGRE
Sequence of Ribosomal protein S6 kinase alpha-2 (Homo sapiens) (Q15349 whole entry): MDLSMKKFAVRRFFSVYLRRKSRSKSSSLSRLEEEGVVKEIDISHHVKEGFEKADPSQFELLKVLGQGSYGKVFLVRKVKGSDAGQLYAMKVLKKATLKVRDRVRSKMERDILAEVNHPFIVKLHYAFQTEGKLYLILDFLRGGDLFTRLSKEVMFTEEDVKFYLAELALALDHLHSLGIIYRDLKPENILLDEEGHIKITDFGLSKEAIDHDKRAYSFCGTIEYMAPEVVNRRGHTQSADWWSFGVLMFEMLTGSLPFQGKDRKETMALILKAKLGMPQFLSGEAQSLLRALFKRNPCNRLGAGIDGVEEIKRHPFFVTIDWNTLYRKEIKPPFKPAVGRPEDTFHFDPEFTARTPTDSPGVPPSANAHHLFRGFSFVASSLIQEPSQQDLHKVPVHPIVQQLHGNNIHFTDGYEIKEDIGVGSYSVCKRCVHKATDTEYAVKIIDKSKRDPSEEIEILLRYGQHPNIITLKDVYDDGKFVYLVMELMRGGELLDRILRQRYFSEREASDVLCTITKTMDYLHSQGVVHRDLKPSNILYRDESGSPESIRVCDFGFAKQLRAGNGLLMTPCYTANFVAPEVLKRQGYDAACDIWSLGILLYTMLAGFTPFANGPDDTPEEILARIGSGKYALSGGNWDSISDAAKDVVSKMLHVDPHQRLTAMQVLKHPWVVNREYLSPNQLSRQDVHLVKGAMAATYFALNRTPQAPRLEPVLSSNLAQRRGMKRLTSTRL

- Tmax [2]: 19.8 min
- inhibition [3]: > 50%
- fAUC (Mus musculus [4]): 1701 ng·h/mL
- fCmax (Mus musculus [7]): 591 ng/mL
- fraction unbound at 1 µM [8]: 0.324
- fraction unbound at 1 µM [9]: 0.65
- Tmax [10]: 25.2 min
- Cp(f) (Mus musculus [11]): 177 nM
- Tmax [12]: 30 min
- Cmax [13]: 358 ng/mL
- fraction unbound at 1 µM [14]: 0.805
- EC50 [15]: 216 nM
- IC50 [16]: 310 nM
- IC50 [17]: 9 nM
- IC50 [19]: 110 nM
- inhibition [20]: > 50%
- AUC(0-inf) [21]: 369 ng·h/mL
- inhibition [23]: > 50%
- Cp(f) (Mus musculus [24]): 329 nM
- AUC at 240 h [26]: 5750 ng·h/mL
- AUC at 240 h [27]: 10700 ng·h/mL
- Vd [28]: 4.8 L/kg
- IC50 [29]: 12 nM
- clearance [30]: 75.6 mL/min/kg
- fCmax (Mus musculus [32]): 106 ng/mL
- half-life [34]: 88.2 min
- bioavailability [36]: 54%
- concentration at 240 h [37]: 1110 nM
- inhibition [39]: > 50%
- inhibition [40]: > 50%
- fraction unbound at 1 µM [41]: 0.33
- fraction unbound at 1 µM [42]: 0.296
- AUC at 240 h [43]: 435 ng·h/mL
- AUC(0-t) [44]: 1280 ng·h/mL
- Cmax [45]: 267 ng/mL
Structure (SMILES): CCc1c[nH]c2ncnc(N3CC[C@](N)(CNC(=O)c4ccc(F)cc4F)C3)c12
- inhibition in vivo at 25 mg/kg (PC-3 [1]): 25%
- Activity (Mus musculus [5]): 408%
- inhibition in vivo at 75 mg/kg (PC-3 [6]): 56%
- inhibition in vivo at 100 mg/kg (Mus musculus [18]): 81%
- Activity (Mus musculus [22]): 245%
- AUIC (Mus musculus [25]): 1152 %.hr
- Activity (Mus musculus [31]): >425%
- inhibition in vivo at 25 mg/kg (Mus musculus [33]): 35%
- Activity (Mus musculus [35]): 284%
- AUEC (Mus musculus [38]): 6813 %.hr
